From patent US8916702B2 (priority 2012, dated 2014) come the findings set out here.

The subject of one assay is HCV pseudoparticles (genotype 1a HCV E1 and E2 envelope, H77C isolate). In words: microbe, parasite or virus in culture. To be noted: Hepatitis C virus, Huh-7, 48 h, HCV pseudoparticles (genotype 1a, H77C) in Huh7 cells; average of duplicate; luciferase 2 days after infection. Type of assay: cell-based.
Usually EC50 stands for the concentration at which the effect is half-maximal. The compound `COC(=O)[C@H](CNC(=O)C(=O)Nc1ccc(C2CCCCC2)cc1)NC(=O)c1ccc(Nc2nc(NC3(c4ccc(Cl)cc4)CC3)nc(OCC(F)(F)F)n2)cc1` [Compound 3079] yielded an EC50 of 1.42 nM.
On the same count and under the same terms, the value for `COC(=O)[C@H](CNC(=O)C(=O)Nc1ccc(C(=O)c2ccccc2)cc1)NC(=O)c1ccc(Nc2nc(NC3(c4ccc(Cl)cc4)CC3)nc(OCC(F)(F)F)n2)cc1` [Compound 3084] was 3.58 nM.
Same read-out and setting: the value for `COC(=O)[C@H](CNC(=O)C(=O)Nc1ccc(Cc2ccccc2)cc1)NC(=O)c1ccc(Nc2nc(NC3(c4ccc(Cl)cc4)CC3)nc(OCC(F)(F)F)n2)cc1` [Compound 3091] was 2.85 nM; that for `C#Cc1ccc(NC(=O)C(=O)NC[C@H](NC(=O)c2ccc(Nc3nc(NC4(c5ccc(Cl)cc5)CC4)nc(OCC(F)(F)F)n3)cc2)C(=O)OC)cc1` [Compound 3100] was 0.27 nM.
`COC(=O)[C@H](CNC(=O)C(=O)Nc1ccc(-n2nnnc2C)cc1)NC(=O)c1ccc(Nc2nc(NC3(c4ccc(Cl)cc4)CC3)nc(OCC(F)(F)F)n2)cc1` [Compound 3107] came in with a concentration for a half-maximal effect (EC50) of 0.92 nM.
The compound `COC(=O)[C@H](CCNC(=O)C(=O)Nc1ccc(Oc2ccccc2)cc1)NC(=O)c1ccc(Nc2nc(NC3(c4ccc(Cl)cc4)CC3)nc(OCC(F)(F)F)n2)cc1` [Compound 3113] had an EC50 of 7.77 nM.
`COC(=O)[C@H](CCNC(=O)C(=O)Nc1ccc(C)cc1)NC(=O)c1ccc(Nc2nc(NC3(c4ccc(Cl)cc4)CC3)nc(OCC(F)(F)F)n2)cc1` [Compound 3114] yielded a half-maximal effective concentration (EC50) of 0.084 nM.

Still in this assay, the particulars now being: Hepatitis C virus, Huh-7, read-out: Activity (EC50 class), HCV pseudoparticles (genotype 1a, H77C) in Huh7 cells; EC50 expressed as class A/B.
For `CC(C)(CNC(=O)C(=O)Nc1ccccc1C1CC1)CNC(=O)c1ccc(Nc2nc(NC3(c4ccc(Cl)cc4)CC3)nc(OCC(F)(F)F)n2)cc1` [Compound 3076], the EC50 was 0.01 to 10 nM.
Regarding `COc1ccc(NC(=O)C(=O)NCC(C)(C)CNC(=O)c2ccc(Nc3nc(NC4(c5ccc(Cl)cc5)CC4)nc(OCC(F)(F)F)n3)cc2)c(OC)n1` [Compound 3077], the EC50 was in the range of 0.01 to 10 nM.
The same measure, in the same setting: the value for `CC(C)(CNC(=O)C(=O)Nc1cccc(C(=O)c2ccccc2)c1)CNC(=O)c1ccc(Nc2nc(NC3(c4ccc(Cl)cc4)CC3)nc(OCC(F)(F)F)n2)cc1` [Compound 3078] was 0.01 to 10 nM; that for `COC(=O)[C@H](CNC(=O)C(=O)Nc1ccc(C2CCCCC2)cc1)NC(=O)c1ccc(Nc2nc(NC3(c4ccc(Cl)cc4)CC3)nc(OCC(F)(F)F)n2)cc1` [Compound 3079] was 0.01 to 10 nM.
On the same count and under the same terms, next, `COC(=O)[C@H](CNC(=O)C(=O)Nc1ccc(N2CCOCC2)cc1)NC(=O)c1ccc(Nc2nc(NC3(c4ccc(Cl)cc4)CC3)nc(OCC(F)(F)F)n2)cc1` [Compound 3080]: 0.01 to 10 nM.
For `COC(=O)[C@H](CNC(=O)C(=O)Nc1ccc(Cl)cc1)NC(=O)c1ccc(Nc2nc(NC3(c4ccc(Cl)cc4)CC3)nc(OCC(F)(F)F)n2)cc1` [Compound 3081], the EC50 was in the range of 0.01 to 10 nM.
In the case of `COC(=O)[C@H](CNC(=O)C(=O)Nc1ccc(Oc2ccccc2)cc1)NC(=O)c1ccc(Nc2nc(NC3(c4ccc(Cl)cc4)CC3)nc(OCC(F)(F)F)n2)cc1` [Compound 3082], the concentration for a half-maximal effect (EC50) was 0.01 to 10 nM.
On the same count and under the same terms, the value for `COC(=O)[C@H](CNC(=O)C(=O)Nc1ccc(-c2ccccc2)cc1)NC(=O)c1ccc(Nc2nc(NC3(c4ccc(Cl)cc4)CC3)nc(OCC(F)(F)F)n2)cc1` [Compound 3083] was 0.01 to 10 nM; that for `COC(=O)[C@H](CNC(=O)C(=O)Nc1ccc(C(=O)c2ccccc2)cc1)NC(=O)c1ccc(Nc2nc(NC3(c4ccc(Cl)cc4)CC3)nc(OCC(F)(F)F)n2)cc1` [Compound 3084] was 0.01 to 10 nM.
Same read-out and setting: the value for `COC(=O)[C@H](CNC(=O)C(=O)Nc1ccc(C)cc1)NC(=O)c1ccc(Nc2nc(NC3(c4ccc(Cl)cc4)CC3)nc(OCC(F)(F)F)n2)cc1` [Compound 3085] was 0.01 to 10 nM.
As to `COC(=O)[C@H](CNC(=O)C(=O)Nc1ccc(CCO)cc1)NC(=O)c1ccc(Nc2nc(NC3(c4ccc(Cl)cc4)CC3)nc(OCC(F)(F)F)n2)cc1` [Compound 3086], the concentration for a half-maximal effect (EC50) lay in the range of 0.01 to 10 nM.
With `COC(=O)[C@H](CNC(=O)C(=O)Nc1ccc(S(N)(=O)=O)cc1)NC(=O)c1ccc(Nc2nc(NC3(c4ccc(Cl)cc4)CC3)nc(OCC(F)(F)F)n2)cc1` [Compound 3087], the EC50 was 0.01 to 10 nM.
The same measure, in the same setting: next, `COC(=O)[C@H](CNC(=O)C(=O)Nc1ccc(C(N)=O)cc1)NC(=O)c1ccc(Nc2nc(NC3(c4ccc(Cl)cc4)CC3)nc(OCC(F)(F)F)n2)cc1` [Compound 3088]: 0.01 to 10 nM.
The same measure, in the same setting: the value for `CCC(CC)CCNC(=O)c1ccc(NC(=O)C(=O)NC[C@H](NC(=O)c2ccc(Nc3nc(NC4(c5ccc(Cl)cc5)CC4)nc(OCC(F)(F)F)n3)cc2)C(=O)OC)cc1` [Compound 3089] was 0.01 to 10 nM; that for `COC(=O)[C@H](CNC(=O)C(=O)Nc1ccc(OCc2ccccc2)cc1)NC(=O)c1ccc(Nc2nc(NC3(c4ccc(Cl)cc4)CC3)nc(OCC(F)(F)F)n2)cc1` [Compound 3090] was 0.01 to 10 nM; that for `COC(=O)[C@H](CNC(=O)C(=O)Nc1ccc(Cc2ccccc2)cc1)NC(=O)c1ccc(Nc2nc(NC3(c4ccc(Cl)cc4)CC3)nc(OCC(F)(F)F)n2)cc1` [Compound 3091] was 0.01 to 10 nM.
For `COC(=O)[C@H](CNC(=O)C(=O)Nc1ccc(N2CC(C)NC(C)C2)cc1)NC(=O)c1ccc(Nc2nc(NC3(c4ccc(Cl)cc4)CC3)nc(OCC(F)(F)F)n2)cc1` (stereo partly drawn) [Compound 3092], the concentration giving a half-maximal response (EC50) was 0.01 to 10 nM.
For the compound `COC(=O)[C@H](CNC(=O)C(=O)Nc1ccc(-c2cnco2)cc1)NC(=O)c1ccc(Nc2nc(NC3(c4ccc(Cl)cc4)CC3)nc(OCC(F)(F)F)n2)cc1` [Compound 3093], the EC50 lay in the range of 0.01 to 10 nM.
On the same count and under the same terms, the value for `COC(=O)[C@H](CNC(=O)C(=O)Nc1ccc(Cc2ccncc2)cc1)NC(=O)c1ccc(Nc2nc(NC3(c4ccc(Cl)cc4)CC3)nc(OCC(F)(F)F)n2)cc1` [Compound 3094] was 0.01 to 10 nM; that for `COC(=O)[C@H](CNC(=O)C(=O)Nc1ccc(-n2cnc(Cl)c2Cl)cc1)NC(=O)c1ccc(Nc2nc(NC3(c4ccc(Cl)cc4)CC3)nc(OCC(F)(F)F)n2)cc1` [Compound 3095] was 0.01 to 10 nM.
On to `COC(=O)[C@H](CNC(=O)C(=O)Nc1ccc(OCC(F)(F)F)cc1)NC(=O)c1ccc(Nc2nc(NC3(c4ccc(Cl)cc4)CC3)nc(OCC(F)(F)F)n2)cc1` [Compound 3096], for which the EC50 was in the range of 0.01 to 10 nM.
`COC(=O)[C@H](CNC(=O)C(=O)Nc1ccc(N2CCCC2=O)cc1)NC(=O)c1ccc(Nc2nc(NC3(c4ccc(Cl)cc4)CC3)nc(OCC(F)(F)F)n2)cc1` [Compound 3097]: the 50% effective concentration (EC50) was in the range of 0.01 to 10 nM.
In the case of `COC(=O)[C@H](CNC(=O)C(=O)Nc1ccc(-n2ccc(C(F)(F)F)n2)cc1)NC(=O)c1ccc(Nc2nc(NC3(c4ccc(Cl)cc4)CC3)nc(OCC(F)(F)F)n2)cc1` [Compound 3098], the 50% effective concentration (EC50) fell in the range of 0.01 to 10 nM.
The same measure, in the same setting: next, `COC(=O)[C@H](CNC(=O)C(=O)Nc1ccc(C(=O)N2CCOCC2)cc1)NC(=O)c1ccc(Nc2nc(NC3(c4ccc(Cl)cc4)CC3)nc(OCC(F)(F)F)n2)cc1` [Compound 3099]: 0.01 to 10 nM; `C#Cc1ccc(NC(=O)C(=O)NC[C@H](NC(=O)c2ccc(Nc3nc(NC4(c5ccc(Cl)cc5)CC4)nc(OCC(F)(F)F)n3)cc2)C(=O)OC)cc1` [Compound 3100]: 0.01 to 10 nM.
On to `COC(=O)[C@H](CNC(=O)C(=O)Nc1ccc(-n2cncn2)cc1)NC(=O)c1ccc(Nc2nc(NC3(c4ccc(Cl)cc4)CC3)nc(OCC(F)(F)F)n2)cc1` [Compound 3101], for which the EC50 fell in the range of 0.01 to 10 nM.
As for `COC(=O)[C@H](CNC(=O)C(=O)Nc1ccc(N2CCN(Cc3ccccc3)CC2)cc1)NC(=O)c1ccc(Nc2nc(NC3(c4ccc(Cl)cc4)CC3)nc(OCC(F)(F)F)n2)cc1` [Compound 3102], the 50% effective concentration (EC50) fell in the range of 0.01 to 10 nM.
Consider `COC(=O)[C@H](CNC(=O)C(=O)Nc1ccc(-c2ccc(C#N)cc2)cc1)NC(=O)c1ccc(Nc2nc(NC3(c4ccc(Cl)cc4)CC3)nc(OCC(F)(F)F)n2)cc1` [Compound 3103], for which the concentration giving a half-maximal response (EC50) lay in the range of 0.01 to 10 nM.
For `COC(=O)[C@H](CNC(=O)C(=O)Nc1ccc(N(C)c2nc(C)cc(C)n2)cc1)NC(=O)c1ccc(Nc2nc(NC3(c4ccc(Cl)cc4)CC3)nc(OCC(F)(F)F)n2)cc1` [Compound 3104], the EC50 lay in the range of 0.01 to 10 nM.
Turning to `COC(=O)[C@H](CNC(=O)C(=O)Nc1ccc(S(C)(=O)=O)cc1)NC(=O)c1ccc(Nc2nc(NC3(c4ccc(Cl)cc4)CC3)nc(OCC(F)(F)F)n2)cc1` [Compound 3105], the 50% effective concentration (EC50) is 0.01 to 10 nM.
Take `COC(=O)[C@H](CNC(=O)C(=O)Nc1ccc(S(=O)(=O)N2CCCC2)cc1)NC(=O)c1ccc(Nc2nc(NC3(c4ccc(Cl)cc4)CC3)nc(OCC(F)(F)F)n2)cc1` [Compound 3106]: the EC50 is 0.01 to 10 nM.
Turning to `COC(=O)[C@H](CNC(=O)C(=O)Nc1ccc(-n2nnnc2C)cc1)NC(=O)c1ccc(Nc2nc(NC3(c4ccc(Cl)cc4)CC3)nc(OCC(F)(F)F)n2)cc1` [Compound 3107], the EC50 lay within 0.01 to 10 nM.
Still for that read-out and setting: next, `COC(=O)[C@H](CNC(=O)C(=O)Nc1ccc(-n2cccn2)cc1)NC(=O)c1ccc(Nc2nc(NC3(c4ccc(Cl)cc4)CC3)nc(OCC(F)(F)F)n2)cc1` [Compound 3108]: 0.01 to 10 nM; `COC(=O)[C@H](CNC(=O)C(=O)Nc1ccc(-n2nc(C)cc2C)cc1)NC(=O)c1ccc(Nc2nc(NC3(c4ccc(Cl)cc4)CC3)nc(OCC(F)(F)F)n2)cc1` [Compound 3109]: 0.01 to 10 nM; `CC(C)(CNC(=O)C(=O)Nc1ccc(Cl)cc1C(N)=O)CNC(=O)c1ccc(Nc2nc(NC3(c4ccc(Cl)cc4)CC3)nc(OCC(F)(F)F)n2)cc1` [Compound 3110]: 0.01 to 10 nM.
As for `COC(=O)[C@H](CCNC(=O)C(=O)Nc1ccc(C2CCCCC2)cc1)NC(=O)c1ccc(Nc2nc(NC3(c4ccc(Cl)cc4)CC3)nc(OCC(F)(F)F)n2)cc1` [Compound 3111], the EC50 was in the range of 0.01 to 10 nM.
The same measure, in the same setting: next, `COC(=O)[C@H](CCNC(=O)C(=O)Nc1ccc(N2CCOCC2)cc1)NC(=O)c1ccc(Nc2nc(NC3(c4ccc(Cl)cc4)CC3)nc(OCC(F)(F)F)n2)cc1` [Compound 3112]: 0.01 to 10 nM; `COC(=O)[C@H](CCNC(=O)C(=O)Nc1ccc(Oc2ccccc2)cc1)NC(=O)c1ccc(Nc2nc(NC3(c4ccc(Cl)cc4)CC3)nc(OCC(F)(F)F)n2)cc1` [Compound 3113]: 0.01 to 10 nM.
Same read-out and setting: next, `COC(=O)[C@H](CCNC(=O)C(=O)Nc1ccc(C)cc1)NC(=O)c1ccc(Nc2nc(NC3(c4ccc(Cl)cc4)CC3)nc(OCC(F)(F)F)n2)cc1` [Compound 3114]: 0.01 to 10 nM; `COC(=O)[C@H](CCNC(=O)C(=O)Nc1ccc(CCCl)cc1)NC(=O)c1ccc(Nc2nc(NC3(c4ccc(Cl)cc4)CC3)nc(OCC(F)(F)F)n2)cc1` [Compound 3115]: 0.01 to 10 nM.
Take `COC(=O)[C@H](CCNC(=O)C(=O)Nc1ccc(C(N)=O)cc1)NC(=O)c1ccc(Nc2nc(NC3(c4ccc(Cl)cc4)CC3)nc(OCC(F)(F)F)n2)cc1` [Compound 3116]: the 50% effective concentration (EC50) lay in the range of 0.01 to 10 nM.
On the same count and under the same terms, next, `CCN(CC)CCNC(=O)c1ccc(NC(=O)C(=O)NCC[C@H](NC(=O)c2ccc(Nc3nc(NC4(c5ccc(Cl)cc5)CC4)nc(OCC(F)(F)F)n3)cc2)C(=O)OC)cc1` [Compound 3117]: 0.01 to 10 nM; `COC(=O)[C@H](CCNC(=O)C(=O)Nc1ccc(OCc2ccccc2)cc1)NC(=O)c1ccc(Nc2nc(NC3(c4ccc(Cl)cc4)CC3)nc(OCC(F)(F)F)n2)cc1` [Compound 3118]: 0.01 to 10 nM; `COC(=O)[C@H](CCNC(=O)C(=O)NC1CCC(S(C)(=O)=O)CC1)NC(=O)c1ccc(Nc2nc(NC3(c4ccc(Cl)cc4)CC3)nc(OCC(F)(F)F)n2)cc1` (stereo partly drawn) [Compound 3119]: 0.01 to 10 nM.
